Source: patent publication US12121521B2, “Uses of salt-inducible kinase (SIK) inhibitors for treating osteoporosis” (The General Hospital Corporation, priority 2016, dated 2024)

Tests used:
Ocy454 cells [1] = assay: Immunoblotting of Ocy454 cell lysates (HDAC4/5, CRTC2, SIK2 phosphorylation and localisation); assay type: cell-based, mouse
Ocy454 cells [2] = assay: Gene expression in Ocy454 cells by RT-qPCR; assay type: cell-based, mouse
male mice = assay: Acute YKL-05-099 administration: bone gene expression; assay type: in vivo, mouse; details: single I.P. dose 20 μmol/kg, 2 hours
Description: Whole cell extracts were generated, followed by immunoblotting. […] RNA was prepared, and gene expression analyzed by RT-qPCR. […] 2 hours later, animals were sacrificed, RNA was prepared from femurs, and gene expression analyzed by RT-qPCR. […] Animals were sacrificed 2 hours after the final dose, and RNA from femurs analyzed for the indicated genes. BGLAP encodes osteocalcin. * indicated p<0.01 versus vehicle, # indicates p<0.05 versus vehicle. (FIGS. 8E to 8K), static and dynamic histomorphometry were performed on the tibia from the same mice as in FIG. 8D. Each data point represents an individual mouse, p values for each difference are shown on the graph. (FIG. 8L) Representative photomicrograph showing increased osteoblasts on cancellous bone surfaces from YKL-05-099-treated mice.
All animals were housed in the Center for Comparative Medicine at the Massachusetts General Hospital, and all experiments were approved by the hospital's Subcommittee on Research Animal Care. HDAC5-null mice (70) and HDAC4 f/f mice (71) were generously provided by Dr. Eric Olson (University of Texas Southwestern Medical Center, Dallas, TX) and were backcrossed to C57B/6 mice for at least 6 generations. […] In all instances, skeletal phenotypes were evaluated in 8 week-old sex-matched littermates. […]

[3] = in vivo; cited from earlier work
[4] = control vs SIK2/3 deficient cells, 0.5 μM, 4 hours
[5] = 1 μM, 4 hours, control vs shSIK2/3 cells, FIG. 8B

Structure (SMILES)	SIK2 S358 phosphorylation (Ocy454 cells [1]; control and Gsα-deficient Ocy454 cells, 10 μM, 30 minutes)	HDAC4 S246 phosphorylation (Ocy454 cells [1]; osteocytes lacking SIK2 and SIK3, 10 μM for 45 minutes)	RANKL expression (Ocy454 cells [2]; FIG. 5E)	SOST expression (Ocy454 cells [2]; FIG. 5E)	RANKL expression (Ocy454 cells [2]; Gsα-deficient Ocy454, 0.5 μM)	SOST expression (Ocy454 cells [2]; Gsα-deficient Ocy454, 0.5 μM)	stimulation of RANKL expression (Ocy454 cells [2]; cells lacking CRTC2, PTH 1 nM or YKL-05-093 0.5 μM, 4 hours)	genes measured with SIK2/3-dependent regulation (Ocy454 cells [2]; [4])	genes measured with regulation independent of the presence of SIK2/3 (Ocy454 cells [2]; [4])	SOST expression (Ocy454 cells [2]; osteocytes lacking SIK2 and SIK3, 0.5 μM, 4 hours)	RANKL in bone RNA (male mice)	SOST in bone RNA (male mice)	tolerability [3]	HDAC4 S246 phosphorylation (Ocy454 cells [1]; indicated doses, 20 minutes, FIG. 8A)	RANKL expression (Ocy454 cells [2]; [5])	SOST expression (Ocy454 cells [2]; [5])
COc1ccc(N2C(=O)N(c3c(C)cccc3C)Cc3cnc(Nc4ccc(C5CCN(C)CC5)c(OC)c4)nc32)c(OC)c1 [YKL-05-093]	did not increase SIK2 S358 phosphorylation	did not decrease HDAC4 S246 phosphorylation	RANKL up-regulation	rapid and potent SOST suppression	RANKL up-regulation with effects similar to forskolin	SOST suppression	abrogated	13/19	6/19	did not decrease HDAC4 S246 phosphorylation or cause SOST suppression	–	–	–	–	–	–
COc1ccc(N2C(=O)N(c3c(C)cccc3Cl)Cc3cnc(Nc4ccc(C5CCN(C)CC5)cc4OC)nc32)nc1 [YKL-05-099]	–	–	–	–	–	–	–	–	–	–	RANKL up-regulation	SOST down-regulation	well-tolerated	dose-dependent reduction in HDAC4 S246 phosphorylation	RANKL up-regulation in a SIK2/3-dependent manner	SOST down-regulation
